In paper PMC9126595, “Identification of 3-(piperazinylmethyl)benzofuran derivatives as novel type II CDK2 inhibitors: design, synthesis, biological evaluation, and in silico insights” (Journal of Enzyme Inhibition and Medicinal Chemistry, 2022):

Columns and labels:
[1] = test system: non-tumorigenic human lung fibroblast MRC-5 cell line; assay: Normal cell cytotoxicity, MRC-5; type: cell-based; details: MRC5, normal lung fibroblasts, mean of three separate experiments, read-out: IC50 MRC-5
Procedure: To test the safety of the newly synthesised compounds and their selectivity towards cancer cells, their cytotoxic activity was tested on non-tumorigenic human lung fibroblast MRC-5 cell line.

Panc-1 cells [2] = assay: Cell cycle analysis (PI flow cytometry); type: cell-based, human; details: Panc-1, IC50 dose, 24 h
Procedure: (§1) The examined human pancreatic cancer (Panc-1), breast cancer (MCF-7), and lung carcinoma (A549) cell lines have been obtained from American Type Culture Collection (ATCC). The cells were maintained in Dulbecco's modified Eagle's medium (DMEM) supplemented with 10% heat inactivated fetal calf serum (GIBCO), penicillin (100 U/ml) and streptomycin (100 µg/ml) at 37 °C in humidified atmosphere containing 5% CO2. […]
a 25 cm2 flask in 5 ml of culture medium. […]
The concentration required for […]
concentration), and then cells were washed twice with ice-cold phosphate buffered saline (PBS).
Subsequently, the treated cells were collected by centrifugation, fixed in ice-cold 70% (v/v) ethanol, washed with PBS, re-suspended with 100 μg/mL RNase, stained with 40 μg/mL PI, and analyzed by flow cytometry using FACS Calibur (Becton Dickinson, BD, Franklin Lakes, NJ, USA). The cell cycle distributions were calculated using CellQuest software 5.1 (Becton

[3] = test system: Panc-1 pancreatic cancer cell line; assay: SRB anti-proliferative assay, Panc-1; type: cell-based, human; details: Homo sapiens, PANC-1; SRB, 48 h; mean of 3 separate experiments; read-out: IC50 Panc-1
Source text: (§2) The experimental details for the performed biological assays; Sulforhodamine B (SRB) cytotoxicity, CDK2 kinase, Annexin V-FITC apoptosis, and cell cycle assays[86–89] were mentioned in the Supporting Information.
(§3) 1. Anti-proliferative activity assay
as §1
(§4) a 25 cm2 flask in 5 ml of culture medium. The anti-proliferative activity of the tested 3-(piperazinylmethyl)benzofurans (9, 11, 13, 15 and 17) was measured in vitro using the Sulfo-Rhodamine-B stain (SRB) assay. Briefly, cells were plated out in 96-well microtiter plate (0.5X10^4 cells/well) and incubated for 24 h before treatment with the tested hybrids to allow cells to attach to the bottom of the well of the plate. Tested benzofurans were dissolved in DMSO at 1 mg/ml immediately before use and diluted to the appropriate volume just before addition to the cell culture. Different concentrations of tested benzofurans, and Staurosporine were added to the cells (three wells were prepared for each individual dose). Cells were incubated with the hybrids for 48 […]
(§5) After 48 h cells were fixed, washed, and stained for 30 min with 0.4% (w/v) SRB dissolved in 1% acetic acid. Unbound dye was removed by four washes with 1% acetic acid, and attached stain was recovered with Tris-EDTA buffer. Color intensity was measured in an ELISA reader. The relation between percent of surviving fraction and log drug concentration is plotted to get the survival curve for each cell line. […]

Panc-1 cells [4] = assay: Annexin V-FITC/PI apoptosis assay; type: cell-based, human; details: Panc-1, IC50 concentration
Procedure: Anx V flowcytometry assay is featured as a helpful tool to determine whether cells death is due to the physiological apoptosis or to the non-specific necrosis.
3. Annexin V-FITC Apoptosis Assay
Phosphatidylserine externalization was assayed using Annexin V-FITC/PI apoptosis detection kit (BD Biosciences, USA) according to the manufacturer’s instructions. Pancreatic cancer Panc-1 […]
concentration. Briefly, cells were then harvested via trypsinization, and rinsed twice in PBS followed by binding buffer. Moreover, cells were re-suspended in 100 μL of binding buffer with the addition of 1 μL of FITC-Annexin V followed by an incubation period of 30 min at 4 °C. Cells were then rinsed in binding buffer and resuspended in 150 μL of binding buffer with the addition

[5] = test system: A-549 lung carcinoma cell line; assay: SRB anti-proliferative assay, A-549; type: cell-based, human; details: Homo sapiens, A549; SRB, 48 h; mean of 3 separate experiments; read-out: IC50 A-549
Source text: as §2, §3, §1, §4, §5

CDK2 = target: T1, CDK2 (Homo sapiens, UniProt P24941); assay: CDK2 kinase inhibitory assay (Promega CDK2 Kinase Enzyme System); type: biochemical; details: mean ± SD of three separate experiments
T1 construct: purchased Promega V2971
Source text: The experimental details for the performed biological assays; Sulforhodamine B (SRB) cytotoxicity, CDK2 kinase, Annexin V-FITC apoptosis, and cell cycle assays[86–89] were mentioned in the Supporting Information. […]
4. CDK Kinase Inhibitory Activity
CDK2 Kinase Enzyme System (catalog No. V2971) (Promega, Milan, Italy), according to the
manufacturer’s instructions. […]

[6] = test system: MCF-7 breast cancer cell line; assay: SRB anti-proliferative assay, MCF-7; type: cell-based, human; details: Homo sapiens, MCF7; SRB, 48 h; mean of 3 separate experiments; read-out: IC50 MCF-7
Source text: as §2, §3, §1, §4, §5

SMILES: O=C(NNC(=S)Nc1cccc(C(F)(F)F)c1)c1oc2ccccc2c1CN1CCN(c2ccccc2)CC1 [Compound 9h]
- IC50 [1]: 27700 ± 1800 nM
- proportion of cells in sub-G1 phase (Panc-1 cells [2]; control 2.36%): 30.32%
- proportion of cells in G2/M phase (Panc-1 cells [2]; control 12.17%): 32.46%
- cells population in S phase (Panc-1 cells [2]; control 41.90%): 16.66%
- cells population in G0/G1 phase (Panc-1 cells [2]; control 43.57%): 20.56%
- IC50 [3]: 940 ± 100 nM
- total apoptotic cells percentage (Panc-1 cells [4]; control 2.41%): 43.51%
- early apoptotic phase percentage (Panc-1 cells [4]; lower right quadrant, control 0.59%): 5.41%
- late apoptotic phase percentage (Panc-1 cells [4]; upper right quadrant, control 0.32%): 20.99%
- IC50 [5]: 1710 ± 120 nM
- IC50 (CDK2): 40.9 ± 2.1 nM
- IC50 [6]: 2920 ± 170 nM
